As a reminder, the Kd is a measure of binding affinity in units of concentration.

Active and inactive are the calls of the source.

Among the data in ChEMBL document CHEMBL3991601, “The target landscape of clinical kinase drugs” (Science, 2017) are Kd values, retold here.

The target of assay [1] is Dual specificity mitogen-activated protein kinase kinase 1 (Homo sapiens, UniProt Q02750).
For assay [2], the target named is Eukaryotic peptide chain release factor GTP-binding subunit ERF3B (Homo sapiens, UniProt Q8IYD1).
Eukaryotic peptide chain release factor GTP-binding subunit ERF3B, sequence (Q8IYD1 whole entry): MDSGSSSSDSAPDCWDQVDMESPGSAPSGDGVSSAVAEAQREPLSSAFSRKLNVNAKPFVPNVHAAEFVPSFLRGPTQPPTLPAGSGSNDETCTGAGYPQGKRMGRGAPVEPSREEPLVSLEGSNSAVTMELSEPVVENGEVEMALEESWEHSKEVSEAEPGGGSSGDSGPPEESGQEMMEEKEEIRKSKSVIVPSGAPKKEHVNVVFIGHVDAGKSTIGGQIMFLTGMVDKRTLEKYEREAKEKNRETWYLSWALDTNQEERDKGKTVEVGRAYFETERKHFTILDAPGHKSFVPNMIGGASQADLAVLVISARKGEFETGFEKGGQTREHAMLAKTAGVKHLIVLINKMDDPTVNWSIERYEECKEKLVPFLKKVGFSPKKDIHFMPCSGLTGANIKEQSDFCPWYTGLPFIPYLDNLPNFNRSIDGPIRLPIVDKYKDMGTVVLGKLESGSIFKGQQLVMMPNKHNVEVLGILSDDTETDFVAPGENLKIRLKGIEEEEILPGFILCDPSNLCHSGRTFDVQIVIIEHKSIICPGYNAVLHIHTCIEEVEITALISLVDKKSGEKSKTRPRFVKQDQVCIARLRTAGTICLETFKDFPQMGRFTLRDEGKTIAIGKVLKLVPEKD
Assay [3] concerns the target Serine/threonine-protein kinase 38 (Homo sapiens, UniProt Q15208).
The target in assay [4] is Serine/threonine-protein kinase 38-like (Homo sapiens, UniProt Q9Y2H1).
Serine/threonine-protein kinase 38-like, sequence (Q9Y2H1 whole entry): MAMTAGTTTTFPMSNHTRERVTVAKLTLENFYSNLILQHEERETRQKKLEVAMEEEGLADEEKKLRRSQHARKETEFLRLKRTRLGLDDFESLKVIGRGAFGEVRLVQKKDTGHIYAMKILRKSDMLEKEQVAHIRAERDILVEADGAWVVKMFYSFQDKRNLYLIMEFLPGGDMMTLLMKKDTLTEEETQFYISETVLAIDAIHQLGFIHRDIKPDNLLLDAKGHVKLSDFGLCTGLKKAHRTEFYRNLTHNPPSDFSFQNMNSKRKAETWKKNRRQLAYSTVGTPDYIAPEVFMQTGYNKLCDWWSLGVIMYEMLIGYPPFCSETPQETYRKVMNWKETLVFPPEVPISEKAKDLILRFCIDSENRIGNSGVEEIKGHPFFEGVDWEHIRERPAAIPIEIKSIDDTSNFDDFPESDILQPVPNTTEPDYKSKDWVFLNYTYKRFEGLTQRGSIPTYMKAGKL
A further assay concerns the target Misshapen-like kinase 1 (Homo sapiens, UniProt Q8N4C8).
For assay [5], the target named is T1, Cyclin-dependent kinase-like 5 (Homo sapiens, UniProt O76039).
T1 sequence (O76039 whole entry): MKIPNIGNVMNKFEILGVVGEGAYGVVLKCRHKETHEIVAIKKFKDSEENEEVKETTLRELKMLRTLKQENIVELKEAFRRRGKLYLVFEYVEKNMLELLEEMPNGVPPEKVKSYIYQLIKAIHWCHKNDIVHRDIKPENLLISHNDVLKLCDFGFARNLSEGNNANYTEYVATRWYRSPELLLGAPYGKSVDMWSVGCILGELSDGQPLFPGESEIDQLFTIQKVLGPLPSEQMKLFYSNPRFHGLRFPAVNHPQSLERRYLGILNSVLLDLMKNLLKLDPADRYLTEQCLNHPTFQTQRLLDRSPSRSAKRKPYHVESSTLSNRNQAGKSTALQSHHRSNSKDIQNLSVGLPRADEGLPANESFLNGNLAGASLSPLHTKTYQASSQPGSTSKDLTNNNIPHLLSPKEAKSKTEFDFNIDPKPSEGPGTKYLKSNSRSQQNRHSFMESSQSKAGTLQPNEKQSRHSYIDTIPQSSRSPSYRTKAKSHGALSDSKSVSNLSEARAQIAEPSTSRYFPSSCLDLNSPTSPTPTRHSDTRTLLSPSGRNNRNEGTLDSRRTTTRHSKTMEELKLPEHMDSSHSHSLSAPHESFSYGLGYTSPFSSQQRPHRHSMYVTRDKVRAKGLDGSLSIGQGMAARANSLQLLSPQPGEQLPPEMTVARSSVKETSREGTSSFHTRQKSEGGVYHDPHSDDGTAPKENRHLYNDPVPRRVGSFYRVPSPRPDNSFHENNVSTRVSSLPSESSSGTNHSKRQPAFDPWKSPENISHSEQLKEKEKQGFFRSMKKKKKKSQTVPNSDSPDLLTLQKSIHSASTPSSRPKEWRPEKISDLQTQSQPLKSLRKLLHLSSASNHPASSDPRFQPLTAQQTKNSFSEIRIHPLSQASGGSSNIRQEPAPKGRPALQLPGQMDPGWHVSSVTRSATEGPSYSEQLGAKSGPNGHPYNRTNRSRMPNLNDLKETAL

The target of assay [6] is Serine/threonine-protein kinase PLK1 (Homo sapiens, UniProt P53350).
Serine/threonine-protein kinase PLK1, sequence (P53350 whole entry): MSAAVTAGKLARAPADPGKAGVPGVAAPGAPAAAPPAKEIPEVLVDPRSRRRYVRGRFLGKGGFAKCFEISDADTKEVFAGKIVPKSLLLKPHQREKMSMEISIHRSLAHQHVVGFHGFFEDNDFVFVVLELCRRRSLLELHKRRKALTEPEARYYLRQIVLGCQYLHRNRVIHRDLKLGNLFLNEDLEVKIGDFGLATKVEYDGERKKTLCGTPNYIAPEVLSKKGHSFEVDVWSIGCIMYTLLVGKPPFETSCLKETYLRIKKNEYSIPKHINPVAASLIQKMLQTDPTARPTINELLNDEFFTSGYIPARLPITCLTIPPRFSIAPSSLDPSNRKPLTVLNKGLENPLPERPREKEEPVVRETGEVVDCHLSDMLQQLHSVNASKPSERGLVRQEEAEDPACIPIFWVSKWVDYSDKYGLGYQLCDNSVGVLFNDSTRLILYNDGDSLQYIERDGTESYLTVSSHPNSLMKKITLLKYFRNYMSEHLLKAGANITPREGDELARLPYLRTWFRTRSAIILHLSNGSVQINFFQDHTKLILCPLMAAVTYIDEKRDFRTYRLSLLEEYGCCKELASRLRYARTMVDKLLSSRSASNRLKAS
For assay [7], the target named is T2, Tyrosine-protein kinase Mer (Homo sapiens, UniProt Q12866).
T2 sequence (Q12866 whole entry): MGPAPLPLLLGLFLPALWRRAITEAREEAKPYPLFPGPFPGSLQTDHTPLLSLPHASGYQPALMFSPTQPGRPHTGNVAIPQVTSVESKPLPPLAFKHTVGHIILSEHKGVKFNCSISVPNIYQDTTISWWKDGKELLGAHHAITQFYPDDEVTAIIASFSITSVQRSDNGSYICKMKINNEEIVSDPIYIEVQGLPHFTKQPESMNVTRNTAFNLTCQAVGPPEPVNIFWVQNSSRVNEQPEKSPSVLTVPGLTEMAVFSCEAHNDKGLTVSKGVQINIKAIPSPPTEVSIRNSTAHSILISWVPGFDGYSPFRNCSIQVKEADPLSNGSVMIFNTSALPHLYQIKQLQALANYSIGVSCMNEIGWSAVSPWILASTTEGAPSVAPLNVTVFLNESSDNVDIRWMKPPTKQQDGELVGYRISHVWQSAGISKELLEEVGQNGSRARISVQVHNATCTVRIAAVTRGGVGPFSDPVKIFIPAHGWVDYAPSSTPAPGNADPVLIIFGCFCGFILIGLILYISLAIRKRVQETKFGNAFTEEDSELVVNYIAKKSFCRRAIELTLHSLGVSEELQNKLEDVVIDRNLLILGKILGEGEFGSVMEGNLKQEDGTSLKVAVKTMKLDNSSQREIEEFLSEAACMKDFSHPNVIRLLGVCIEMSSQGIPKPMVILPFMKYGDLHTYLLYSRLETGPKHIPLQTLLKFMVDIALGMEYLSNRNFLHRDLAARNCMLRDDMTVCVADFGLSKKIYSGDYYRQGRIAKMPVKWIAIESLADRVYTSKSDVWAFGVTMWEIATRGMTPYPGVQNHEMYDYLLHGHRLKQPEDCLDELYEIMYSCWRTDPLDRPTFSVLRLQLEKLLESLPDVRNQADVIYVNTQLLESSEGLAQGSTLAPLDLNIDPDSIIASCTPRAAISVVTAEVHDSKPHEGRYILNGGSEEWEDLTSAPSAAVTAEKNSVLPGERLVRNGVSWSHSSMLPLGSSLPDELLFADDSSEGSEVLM

Assay [8] concerns the target Cyclin-dependent kinase 10 (Homo sapiens, UniProt Q15131).
Assay [9] concerns the target Tyrosine-protein kinase Fgr (Homo sapiens, UniProt P09769).
For assay [10], the target named is T3, Dual specificity mitogen-activated protein kinase kinase 4 (Homo sapiens, UniProt P45985).
T3 sequence (P45985 whole entry): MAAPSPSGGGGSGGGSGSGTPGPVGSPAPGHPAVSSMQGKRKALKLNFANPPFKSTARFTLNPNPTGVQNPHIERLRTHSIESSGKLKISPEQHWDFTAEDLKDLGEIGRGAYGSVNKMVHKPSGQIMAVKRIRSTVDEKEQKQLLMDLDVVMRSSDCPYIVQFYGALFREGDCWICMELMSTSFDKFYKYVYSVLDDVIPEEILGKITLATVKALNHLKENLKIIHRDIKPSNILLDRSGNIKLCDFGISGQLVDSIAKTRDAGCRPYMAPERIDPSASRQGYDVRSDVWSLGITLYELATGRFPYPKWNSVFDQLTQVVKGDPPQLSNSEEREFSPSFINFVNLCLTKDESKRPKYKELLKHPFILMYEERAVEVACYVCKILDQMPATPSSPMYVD
Note: in the data inactive means no Kd found up to 30 µM.

Tyrosine-protein kinase Fgr, sequence (P09769 whole entry): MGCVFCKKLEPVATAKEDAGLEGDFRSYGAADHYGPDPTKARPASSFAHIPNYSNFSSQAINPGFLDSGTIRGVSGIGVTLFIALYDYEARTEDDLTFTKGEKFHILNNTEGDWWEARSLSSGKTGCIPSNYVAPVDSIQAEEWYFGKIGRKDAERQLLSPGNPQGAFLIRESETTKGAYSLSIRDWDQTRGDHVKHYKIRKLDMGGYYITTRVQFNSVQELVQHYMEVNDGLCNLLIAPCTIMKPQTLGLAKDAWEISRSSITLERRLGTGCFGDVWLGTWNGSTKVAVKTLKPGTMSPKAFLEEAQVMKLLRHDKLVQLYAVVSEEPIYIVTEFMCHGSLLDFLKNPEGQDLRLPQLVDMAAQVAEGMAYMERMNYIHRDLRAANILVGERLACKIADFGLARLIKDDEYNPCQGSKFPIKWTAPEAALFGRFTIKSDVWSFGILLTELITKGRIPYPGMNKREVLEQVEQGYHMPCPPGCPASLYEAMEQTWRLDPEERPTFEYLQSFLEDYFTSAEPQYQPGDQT
Cyclin-dependent kinase 10, sequence (Q15131 whole entry): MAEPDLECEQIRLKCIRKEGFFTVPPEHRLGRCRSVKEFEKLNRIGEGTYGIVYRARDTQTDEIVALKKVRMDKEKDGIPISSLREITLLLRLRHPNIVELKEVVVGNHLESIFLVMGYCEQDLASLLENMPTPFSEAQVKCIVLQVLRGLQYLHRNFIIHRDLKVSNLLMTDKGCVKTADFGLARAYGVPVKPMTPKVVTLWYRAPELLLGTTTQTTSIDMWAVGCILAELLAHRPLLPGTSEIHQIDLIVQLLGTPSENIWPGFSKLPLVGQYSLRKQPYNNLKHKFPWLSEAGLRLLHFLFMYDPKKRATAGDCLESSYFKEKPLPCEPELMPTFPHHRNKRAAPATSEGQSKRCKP
Serine/threonine-protein kinase 38, sequence (Q15208 whole entry): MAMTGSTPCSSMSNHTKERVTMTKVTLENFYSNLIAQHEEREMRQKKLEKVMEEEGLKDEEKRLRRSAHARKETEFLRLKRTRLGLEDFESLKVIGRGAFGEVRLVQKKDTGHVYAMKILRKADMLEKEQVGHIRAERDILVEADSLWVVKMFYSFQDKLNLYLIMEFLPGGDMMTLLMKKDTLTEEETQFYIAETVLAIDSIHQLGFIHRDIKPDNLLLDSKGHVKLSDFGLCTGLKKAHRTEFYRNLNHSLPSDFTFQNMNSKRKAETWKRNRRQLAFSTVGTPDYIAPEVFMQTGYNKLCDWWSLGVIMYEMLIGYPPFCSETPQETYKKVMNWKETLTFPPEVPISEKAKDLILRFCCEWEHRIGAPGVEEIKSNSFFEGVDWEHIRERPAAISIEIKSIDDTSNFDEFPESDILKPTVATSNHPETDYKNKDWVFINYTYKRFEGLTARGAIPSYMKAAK
Dual specificity mitogen-activated protein kinase kinase 1, sequence (Q02750 whole entry): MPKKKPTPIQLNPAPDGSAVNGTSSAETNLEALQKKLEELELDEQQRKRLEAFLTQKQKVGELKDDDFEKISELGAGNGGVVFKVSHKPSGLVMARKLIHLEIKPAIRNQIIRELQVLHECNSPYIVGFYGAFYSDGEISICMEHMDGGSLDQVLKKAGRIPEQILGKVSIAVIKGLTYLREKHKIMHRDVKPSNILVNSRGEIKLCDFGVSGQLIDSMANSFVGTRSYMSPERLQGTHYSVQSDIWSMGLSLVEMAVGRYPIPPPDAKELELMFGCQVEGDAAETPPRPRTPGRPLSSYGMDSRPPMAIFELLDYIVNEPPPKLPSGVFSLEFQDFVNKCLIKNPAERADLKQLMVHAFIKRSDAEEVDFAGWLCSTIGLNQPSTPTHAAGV
Misshapen-like kinase 1, sequence (Q8N4C8 whole entry): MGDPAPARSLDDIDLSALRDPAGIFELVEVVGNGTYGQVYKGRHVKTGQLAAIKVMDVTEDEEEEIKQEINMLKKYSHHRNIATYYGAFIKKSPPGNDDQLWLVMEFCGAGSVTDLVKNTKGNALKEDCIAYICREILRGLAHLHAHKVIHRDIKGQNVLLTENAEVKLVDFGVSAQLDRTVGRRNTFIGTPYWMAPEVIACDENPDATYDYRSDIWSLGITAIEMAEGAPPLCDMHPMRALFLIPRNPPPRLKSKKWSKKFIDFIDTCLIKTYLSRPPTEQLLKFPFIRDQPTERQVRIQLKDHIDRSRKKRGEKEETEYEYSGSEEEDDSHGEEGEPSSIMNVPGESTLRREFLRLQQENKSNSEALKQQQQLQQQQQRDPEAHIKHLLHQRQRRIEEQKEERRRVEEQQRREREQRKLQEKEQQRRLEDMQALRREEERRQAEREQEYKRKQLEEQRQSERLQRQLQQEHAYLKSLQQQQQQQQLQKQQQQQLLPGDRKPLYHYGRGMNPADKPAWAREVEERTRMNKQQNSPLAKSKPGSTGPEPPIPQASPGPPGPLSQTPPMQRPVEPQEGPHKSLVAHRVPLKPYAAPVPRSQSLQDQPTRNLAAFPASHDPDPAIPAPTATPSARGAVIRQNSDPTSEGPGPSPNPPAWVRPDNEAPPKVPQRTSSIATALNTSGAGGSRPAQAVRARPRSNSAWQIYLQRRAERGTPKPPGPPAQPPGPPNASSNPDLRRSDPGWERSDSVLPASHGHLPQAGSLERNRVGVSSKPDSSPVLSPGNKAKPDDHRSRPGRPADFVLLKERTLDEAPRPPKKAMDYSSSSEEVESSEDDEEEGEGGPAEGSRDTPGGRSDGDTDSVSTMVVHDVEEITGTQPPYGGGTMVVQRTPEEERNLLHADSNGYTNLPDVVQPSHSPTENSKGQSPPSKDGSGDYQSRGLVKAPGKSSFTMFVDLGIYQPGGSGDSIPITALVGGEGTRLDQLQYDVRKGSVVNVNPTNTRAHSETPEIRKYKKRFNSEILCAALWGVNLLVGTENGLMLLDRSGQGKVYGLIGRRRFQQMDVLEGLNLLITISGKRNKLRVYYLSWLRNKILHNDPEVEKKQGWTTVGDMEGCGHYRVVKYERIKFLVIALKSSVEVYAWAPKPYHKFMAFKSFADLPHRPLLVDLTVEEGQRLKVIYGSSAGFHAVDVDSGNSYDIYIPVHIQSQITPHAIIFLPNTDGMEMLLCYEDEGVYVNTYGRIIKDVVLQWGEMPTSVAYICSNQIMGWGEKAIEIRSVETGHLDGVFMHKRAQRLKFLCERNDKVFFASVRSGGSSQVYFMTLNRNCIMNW

For the compound `COc1cccc2cc(-c3nc([C@H]4CC[C@H](C(=O)O)CC4)n4ncnc(N)c34)[nH]c12` [OSI-027], the Kd in assay [1] and in assay [2] was > 30 µM (inactive) each time.
Regarding `Cn1c(=O)n(-c2ccc(C(C)(C)C#N)cc2)c2c3cc(-c4cnc5ccccc5c4)ccc3ncc21` [DACTOLISIB], the Kd (in assay [3]; in assay [4]; at Misshapen-like kinase 1; in [2]) was > 30 µM (inactive) in each case.
As for `O=C(Nc1ccc(OC(F)(F)F)cc1)c1sccc1NCc1ccnc2ccccc12` [OSI-930], the Kd (in assay [5]; in assay [6]; in assay [7]; at Misshapen-like kinase 1; in assay [1]; in [8]) was > 30 µM (inactive) in each case. In assay [9], the Kd was > 30 µM (inactive).
In the case of `O=S(=O)(c1cccc2c(O)nccc12)N1CCCNCC1` [HYDROXYFASUDIL], the Kd in assay [5], in [7], in assay [4], in [1], in assay [8] and in assay [10] was > 30 µM (inactive) throughout. In addition, the Kd in [2] was > 30 µM (inactive).
For `C=CC(=O)Nc1cc(Nc2nccc(-c3cn(C)c4ccccc34)n2)c(OC)cc1N(C)CCN(C)C` [OSIMERTINIB], the Kd (in assay [3]; in [5]; at Misshapen-like kinase 1; in assay [1]; in assay [2]) was > 30 µM (inactive) in each case.
Turning to `CC1(C)CNc2cc(NC(=O)c3cccnc3NCc3ccncc3)ccc21` [MOTESANIB], the Kd was > 30 µM (inactive) in assay [8] and 0.003 µM in [2].
With `C#Cc1cccc(Nc2ncnc3cc4c(cc23)OCCOCCOCCO4)c1` [ICOTINIB], the Kd (in [3]; in assay [5]; in assay [6]; in assay [7]; on Misshapen-like kinase 1; in [1]) was > 30 µM (inactive) each time. Moreover, the Kd in [10] and in [9] was > 30 µM (inactive) each time.
Consider `CC(C)(O)CC(=O)NCCn1ccc2ncnc(Nc3ccc(Oc4cccc(C(F)(F)F)c4)c(Cl)c3)c21` [TAK-285], for which the Kd in assay [3], in assay [5], in assay [1] and in assay [10] was > 30 µM (inactive) each time.
For the compound `C=CCn1c(=O)c2cnc(Nc3ccc(N4CCN(C)CC4)cc3)nc2n1-c1cccc(C(C)(C)O)n1` [ADAVOSERTIB], the Kd in [3], in assay [5], in assay [6], in assay [7] and in assay [4] was > 30 µM (inactive) each time.
Regarding `CN(C)C/C=C/C(=O)Nc1cc2c(Nc3ccc(F)c(Cl)c3)ncnc2cc1O[C@H]1CCOC1` [AFATINIB], the Kd in [2] was > 30 µM (inactive).
Regarding `CCc1cc2c(cc1N1CCC(N3CCOCC3)CC1)C(C)(C)c1[nH]c3cc(C#N)ccc3c1C2=O` [ALECTINIB], the Kd (in assay [5]; in [6]; in assay [7]; at Misshapen-like kinase 1; in assay [1]; in [8]) was > 30 µM (inactive) each time. Besides, the Kd in [9] and in [2] was > 30 µM (inactive) each time.
Take `Cc1cc(Nc2nc(N[C@@H](C)c3ncc(F)cn3)ncc2Cl)n[nH]1` [AZD-1480]: the Kd in assay [5], in [6], in [1], in assay [8], in [10] and in [2] was > 30 µM (inactive) each time.
Regarding `CNC(=O)c1cccc(-c2ccc3c(N4CCOC[C@@H]4C)nc(N4CCOC[C@@H]4C)nc3n2)c1` [VISTUSERTIB], the Kd in [3], in assay [5], in [6], in assay [7], in assay [4] and in assay [1] was > 30 µM (inactive) in each case. In addition, the Kd in assay [9] was > 30 µM (inactive).
Take `CC(C)CC(=O)Nc1[nH]nc2c1CN(C(=O)C1CCN(C)CC1)C2(C)C` [PHA-793887]: the Kd in assay [6], in assay [1] and in assay [9] was > 30 µM (inactive) in each case.
As for `O=C(NOC[C@H](O)CO)c1ccc(F)c(F)c1Nc1ccc(I)cc1F` [MIRDAMETINIB], the Kd (in [6]; in assay [7]; on Misshapen-like kinase 1; in assay [10]; in assay [9]) was > 30 µM (inactive) throughout.
As to `CC1(COc2ccc3c(c2)ncn3-c2ccc3cccc(N4CCC(N)CC4)c3n2)COC1` [CRENOLANIB], the Kd in [5], in [6], in assay [4], in assay [1], in assay [8] and in [10] was > 30 µM (inactive) throughout. In addition, in assay [2], the Kd is > 30 µM (inactive).
Regarding `COc1ccc2c(OCc3nnc4ccc(-c5ccccc5)nn34)ccnc2c1` [AMG-208], the Kd in assay [5], in assay [7], in assay [4], in assay [1], in [10] and in assay [9] was > 30 µM (inactive) throughout.
With `COc1ccc(-c2ccc3ncc4c(c3c2)n(-c2ccc(N3CCNCC3)c(C(F)(F)F)c2)c(=O)n4C)cn1` [BGT-226 FREE BASE], the Kd (in [6]; at Misshapen-like kinase 1; in assay [1]; in assay [9]) was > 30 µM (inactive) throughout.
